In US20060083754A1, “Pharmaceutical combinations comprising corticoids and immunosuppressants for treating corticoid- and/or calcineurin inhibitors-resistant diseases” (priority 2003, published 2006):

Assays:
[1] = system: human peripheral blood mononuclear cells (PBMC); assay: T-cell proliferation assay (BrdU ELISA), PBMC stimulated with SEB; format: cell-based; conditions: SEB (0.1 μg/ml)
[2] = system: human peripheral blood mononuclear cells (PBMC); assay: T-cell proliferation assay (BrdU ELISA), PBMC stimulated with anti-CD3 mAb + anti-CD28 mAb; format: cell-based; conditions: anti-CD3 mAb (0.1 μg/ml)+anti-CD28 mAb (1 μg/ml); for inhibition at 10 µM: Homo sapiens, PBMC
[3] = Example 4, 200000 cells/well, HC 10 μM, ASM 30 nM, BETA 300 nM
[4] = Example 5, 100000 cells/well, HC 10 μM, ASM 30 nM, BETA 300 nM
[5] = Example 9, 200000 cells/well, DEX 300 nM, ASM 30 nM, BETA 300 nM
[6] = Example 10, 100000 cells/well, DEX 300 nM, ASM 30 nM, BETA 300 nM
[7] = Example 22, 200000 cells/well, HC 10 μM, CsA 300 nM, BETA 300 nM, HC (10 μM)+CsA (30 nM), BETA (300 nM)+CsA (300 nM)
[8] = Example 26, 200000 cells/well, DEX 300 nM, CsA 300 nM, BETA 300 nM, DEX (300 nM)+CsA (30 nM), BETA (300 nM)+CsA (300 nM)
[9] = Example 1, 200000 cells/well, HC 10 μM, ASM 30 nM, BETA 300 nM
[10] = Example 2, 100000 cells/well, HC 10 μM, ASM 30 nM, BETA 300 nM
[11] = Example 3, 50000 cells/well, HC 10 μM, ASM 30 nM, BETA 300 nM
[12] = Example 6, 200000 cells/well, DEX 300 nM, ASM 30 nM, BETA 300 nM
[13] = Example 7, 100000 cells/well, DEX 300 nM, ASM 30 nM, BETA 300 nM
[14] = Example 8, 50000 cells/well, DEX 300 nM, ASM 30 nM, BETA 300 nM
[15] = Example 13, 200000 cells/well, HC 10 μM, FK 30 nM, BETA 300 nM
[16] = Example 14, 100000 cells/well, HC 10 μM, FK 30 nM, BETA 300 nM
[17] = Example 15, 200000 cells/well, DEX 300 nM, FK 30 nM, BETA 300 nM
[18] = Example 16, 100000 cells/well, DEX 300 nM, FK 30 nM, BETA 300 nM
[19] = Example 17, 50000 cells/well, DEX 300 nM, FK 30 nM, BETA 300 nM
[20] = Example 19, 200000 cells/well, HC 10 μM, CsA 300 nM, BETA 300 nM, HC (10 μM)+CsA (30 nM), BETA (300 nM)+CsA (300 nM)
[21] = Example 20, 100000 cells/well, HC 10 μM, CsA 300 nM, BETA 300 nM, HC (10 μM)+CsA (30 nM), BETA (300 nM)+CsA (300 nM)
[22] = Example 21, 50000 cells/well, HC 10 μM, CsA 300 nM, BETA 300 nM, HC (10 μM)+CsA (30 nM), BETA (300 nM)+CsA (300 nM)
[23] = Example 23, 200000 cells/well, DEX 300 nM, CsA 300 nM, BETA 300 nM, DEX (300 nM)+CsA (30 nM), BETA (300 nM)+CsA (300 nM)
[24] = Example 24, 100000 cells/well, DEX 300 nM, CsA 300 nM, BETA 300 nM, DEX (300 nM)+CsA (30 nM), BETA (300 nM)+CsA (300 nM)
[25] = Example 25, 50000 cells/well, DEX 300 nM, CsA 300 nM, BETA 300 nM, DEX (300 nM)+CsA (30 nM), BETA (300 nM)+CsA (300 nM)

CCCCC(=O)O[C@]1(C(=O)CO)[C@@H](C)C[C@H]2[C@@H]3CCC4=CC(=O)C=C[C@]4(C)[C@@]3(F)[C@@H](O)C[C@@]21C [BETA, betamethasone 17-valerate]
Normalized OD (% STIM-C) [1, 3]: 85.0 % STIM-C
OD [1, 3]: 0.900
Normalized OD (% STIM-C) [1, 4]: 117.6 % STIM-C
OD [1, 4]: 1.001
Normalized OD (% STIM-C) [1, 5]: 99.7 % STIM-C
OD [1, 5]: 0.902
Normalized OD (% STIM-C) [1, 6]: 97.4 % STIM-C
OD [1, 6]: 0.955
Normalized OD (% STIM-C) [1, 7]: 85.0 % STIM-C
OD [1, 7]: 0.900
Normalized OD (% STIM-C) [1, 8]: 99.7 % STIM-C
OD [1, 8]: 0.902
Normalized OD (% STIM-C) [2, 9]: 105.2 % STIM-C
OD [2, 9]: 0.808
Normalized OD (% STIM-C) [2, 10]: 87.3 % STIM-C
OD [2, 10]: 0.796
Normalized OD (% STIM-C) [2, 11]: 99.4 % STIM-C
OD [2, 11]: 0.873
Normalized OD (% STIM-C) [2, 12]: 89.2 % STIM-C
OD [2, 12]: 0.703
Normalized OD (% STIM-C) [2, 13]: 82.4 % STIM-C
OD [2, 13]: 0.692
Normalized OD (% STIM-C) [2, 14]: 75.4 % STIM-C
OD [2, 14]: 0.794
Normalized OD (% STIM-C) [2, 15]: 105.2 % STIM-C
OD [2, 15]: 0.808
Normalized OD (% STIM-C) [2, 16]: 87.3 % STIM-C
OD [2, 16]: 0.796
Normalized OD (% STIM-C) [2, 17]: 89.2 % STIM-C
OD [2, 17]: 0.703
Normalized OD (% STIM-C) [2, 18]: 82.4 % STIM-C
OD [2, 18]: 0.692
Normalized OD (% STIM-C) [2, 19]: 75.4 % STIM-C
OD [2, 19]: 0.794
Normalized OD (% STIM-C) [2, 20]: 105.2 % STIM-C
OD [2, 20]: 0.808
Normalized OD (% STIM-C) [2, 21]: 87.3 % STIM-C
OD [2, 21]: 0.796
Normalized OD (% STIM-C) [2, 22]: 99.4 % STIM-C
OD [2, 22]: 0.873
Normalized OD (% STIM-C) [2, 23]: 89.2 % STIM-C
OD [2, 23]: 0.703
Normalized OD (% STIM-C) [2, 24]: 82.4 % STIM-C
OD [2, 24]: 0.692
Normalized OD (% STIM-C) [2, 25]: 75.4 % STIM-C
OD [2, 25]: 0.794

C[C@@H]1C[C@H]2[C@@H]3CCC4=CC(=O)C=C[C@]4(C)[C@@]3(F)[C@@H](O)C[C@]2(C)[C@@]1(O)C(=O)CO [DEX, dexamethasone]
Normalized OD (% STIM-C) [1, 5]: 101.5 % STIM-C
Normalized OD (% STIM-C) [1, 6]: 86.4 % STIM-C
Normalized OD (% STIM-C) ([1]; Example 12, 100000 cells/well, DEX 300 nM, ASM 30 nM): 105.7 % STIM-C
Normalized OD (% STIM-C) [1, 8]: 101.5 % STIM-C
Normalized OD (% STIM-C) [2, 12]: 87.2 % STIM-C
Normalized OD (% STIM-C) [2, 13]: 76.5 % STIM-C
Normalized OD (% STIM-C) [2, 14]: 82.2 % STIM-C
Normalized OD (% STIM-C) ([2]; Example 11, 100000 cells/well, DEX 300 nM, ASM 30 nM): 76.3 % STIM-C
Normalized OD (% STIM-C) [2, 17]: 87.2 % STIM-C
Normalized OD (% STIM-C) [2, 18]: 76.5 % STIM-C
Normalized OD (% STIM-C) [2, 19]: 82.2 % STIM-C
Normalized OD (% STIM-C) ([2]; Example 18, 100000 cells/well, DEX 300 nM, FK 30 nM): 76.3 % STIM-C
Normalized OD (% STIM-C) [2, 23]: 87.2 % STIM-C
Normalized OD (% STIM-C) [2, 24]: 76.5 % STIM-C
Normalized OD (% STIM-C) [2, 25]: 82.2 % STIM-C
Normalized OD (% STIM-C) ([2]; Example 27, 100000 cells/well, DEX 300 nM, CsA 300 nM): 76.3 % STIM-C

C[C@]12CCC(=O)C=C1CC[C@@H]1[C@@H]2[C@@H](O)C[C@@]2(C)[C@H]1CC[C@]2(O)C(=O)CO [HC, hydrocortisone]
Normalized OD (% STIM-C) [1, 3]: 89.0 % STIM-C
Normalized OD (% STIM-C) [1, 4]: 100.5 % STIM-C
Normalized OD (% STIM-C) [1, 7]: 89.0 % STIM-C
Normalized OD (% STIM-C) [2, 9]: 106.8 % STIM-C
Normalized OD (% STIM-C) [2, 10]: 92.0 % STIM-C
Normalized OD (% STIM-C) [2, 11]: 109.0 % STIM-C
Normalized OD (% STIM-C) [2, 15]: 106.8 % STIM-C
Normalized OD (% STIM-C) [2, 16]: 92.0 % STIM-C
Normalized OD (% STIM-C) [2, 20]: 106.8 % STIM-C
Normalized OD (% STIM-C) [2, 21]: 92.0 % STIM-C
Normalized OD (% STIM-C) [2, 22]: 109.0 % STIM-C
inhibition at 10 µM [2, 9]: -7.4%
inhibition at 10 µM [2, 10]: < 17%
inhibition at 10 µM [2, 11]: -9.7%
inhibition at 10 µM [2, 15]: -7.4%
